According to patent publication US8697385B1, “Protein controlling synthesis of collagen and associated methods” (Florida State University Research Foundation, Inc., priority 2009, dated 2014):

Key:
[1] = tested on: lung fibroblasts; test: Immunostaining for subcellular colocalization of collagen α1(I) and α2(I) polypeptides; format: cell-based, human; settings: ML-7-treated vs control cells (high degree of colocalization)
Procedure: ML-7, blebbistatin, cytochalasin B, puromycin, and cycloheximide were purchased from Sigma. ML-7 was used at 40 μM, blebbistatin was used at 100 μM, and cytochalasin B was used at 20 μM. Cells were incubated with the drugs for 16 h before analysis. Puromycin (200 μg/ml) and cycloheximide (100 μg/ml) were added to the cells for 2 h. Human lung fibroblasts have been described previously.16 Scleroderma fibroblasts were purchased from the European Collection of Cell Cultures (cell line BM0070) and derived from the skin of a scleroderma patient. MEFs were derived from knock-in mice in which the 5′SL of the collagen α1(I) gene has been mutated (Parsons et al., submitted). Several independent cell isolates were used throughout the study. All cells were cultured in Dulbecco's modified Eagle's medium supplemented with 10% fetal bovine serum for up to 10 passages. […] [^32P]dCTP was included in the PCR step to label the products, which were resolved on sequencing gels, as described previously.^8,31,49,50 When RNA from polysomal fractions was analyzed, an equal aliquot of each fraction was used. […]
Protein concentration was estimated by the Bradford assay, with bovine serum albumin as standard.^51 Western blot analyses of cellular proteins were performed using 50 μg of protein. […] The medium was collected, and an aliquot was analyzed directly by Western blot analysis. […]

[2] = tested on: calnexin; test: Immunostaining for the ER marker protein calnexin; format: cell-based; settings: ML-7-treated cells vs control cells
Procedure: Protein concentration was estimated by the Bradford assay, with bovine serum albumin as standard.^51 Western blot analyses of cellular proteins were performed using 50 μg of protein. For Western blot analysis of secreted proteins, equal numbers of cells were seeded, serum-free medium was added to the cells, and incubation continued for 3 h. The medium was collected, and an aliquot was analyzed directly by Western blot analysis. Use of serum free medium in collecting secreted proteins is essential because fetal calf serum contains substantial amounts of collagen and fibronectin.^15,31 For immunostaining, cells were seeded onto glass coverslips. […]
To assess the role of nonmuscle myosin in collagen synthesis, we disrupted nonmuscle myosin filaments in two different cell types: primary human lung fibroblasts and primary scleroderma skin fibroblasts. […] To assess the effect of ML-7 on collagen protein synthesis and secretion, we analyzed the levels of collagen α1(I) and α2(I) polypeptides in the intracellularly space and in the medium using Western blot analysis and chain-specific antibodies.^12,15,31-33 ML-7 treatment profoundly affected the secretion of type I collagen, but the effect differed in the two types of primary fibroblasts. […]

## O=S(=O)(c1cccc2c(I)cccc12)N1CCCNCC1 [ML-7]
[1]
  subcellular colocalization of α1(I) and α2(I) polypeptides: a significant fraction of α2(I) polypeptide (red) was not colocalized with α1(I) polypeptide
[2]
  calnexin immunostaining (organization of the ER): did not show a difference
